We go through three compounds from patent US20230265098A1, “ALKYNE QUINAZOLINE DERIVATIVES AS INHIBITORS OF ERBB2” (EnLiven Therapeutics, Inc., priority 2020, published 2023).

Molecules are shown by their SMILES.

The subject of one experiment is A431 cells. In words: Cell viability assay (CellTiter Glo). It counts as cell-based. To be noted: Homo sapiens, A-431; 72 hours; 1500 cells per well, 384-well; DMEM + 10% FBS. Here is the method: (§1) Cells were treated with compounds, and cell viability was measured as a metric of kinase inhibition.
(§2) The Ba/F3 cell line is IL-3-dependent mouse cell line derived from the C3H mouse strain. Ba/F3 cell lines were engineered to express human ERBB2 or EGFR kinases, rendering the cells IL-3 independent. The lines were generated via retroviral transduction utilizing a Moloney murine leukemia virus (MMLV) promoter, and constructs are stably integrated into the cell genome.
(§3) Similarly, Ba/F3 cell lines engineered to express EGFR, ERBB2, or ERBB2 mutants were grown, harvested, counted and seeded at 3000 cells per well in 96-well plates for the data sets shown in Tables B3-B4, and seeded at 300 cells per well in 384-well plates for the data set shown in Table B5. A subset of wells contained media only (low control, “LC”).
(§4) Table B2 provides the growth media and number of cells seeded per well for the each cell line.
(§5) Compounds were dissolved in DMSO and serially diluted. Serially-diluted compound or a DMSO only control (high control, “HC”) was added to the plated cells in each well. […] The final proportion of DMSO never exceeded 0.1%.
(§6) Plates were placed in a 37° C., 5% CO2 incubator for 72 hours. Plates were then removed from the incubator and equilibrated for 15 minutes at room temperature. 40 IA of CellTiter Glo reagent (Promega) was added to measure the relative level of metabolically active cells by quantifying intracellular ATP concentrations. Plates were incubated for 30 minutes at room temperature, and luminescence was measured. Percent viability was normalized to a vehicle control only using the following formula: % viability=100×(LumSample−LumLC) (LumHC−LumLC). Graphical curves were fitted using a nonlinear regression model with a sigmoidal dose response.
Background: In ATP-based viability assays light output follows the ATP content of the culture.

A further experiment relates to BT-474 cells. The experiment can be described thus: Cell viability assay (CellTiter Glo). Format: cell-based. To be noted: Homo sapiens, 72 hours, 2000 cells per well, 384-well, DMEM + 10% FBS. The procedure: as §1, §2, §3, §4, §5, §6
The test system of another experiment is MDA-MB-175VII cells. In words: Cell viability assay (CellTiter Glo). It counts as cell-based. To be noted: Homo sapiens, 72 hours, 2000 cells per well, 384-well, RPMI + 10% FBS. Here is the method: as §1, §2, §3, §4, §5, §6
Experiment [1] concerns the target T1, Ba/F3 ERBB2 A775_G776insYVMA (Homo sapiens, UniProt P04626, DUP772-775, cells depend on it).
T1 construct: Ba/F3 cell lines were engineered to express human ERBB2 or EGFR kinases, rendering the cells IL-3 independent
The experiment can be described thus: Cell viability assay (CellTiter Glo). It counts as cell-based, mouse. To be noted: 72 hours; 3000 cells per well, 96-well plates (Tables B3-B4); read-out: Cell viability IC50, nM, Ba/F3 ERBB2 A775_G776insYVMA. A digest of the protocol: (§7)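 Murine Ba/F3 cells made IL-3-independent by retroviral human EGFR or ERBB2 were seeded at 3000 or 300 cells per well and exposed to serially diluted compound (DMSO ≤0.1%) for 72 hours at 37° C, 5% CO2. CellTiter Glo luminescence was normalised to DMSO and media-only controls and fitted to a sigmoidal dose-response.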

In the next experiment the target is T2, Ba/F3 ERBB2 wt (Homo sapiens, UniProt P04626).
T2 construct: Ba/F3 cell lines were engineered to express human ERBB2 or EGFR kinases, rendering the cells IL-3 independent
The experiment can be described thus: Cell viability assay (CellTiter Glo). Format: cell-based, mouse. To be noted: 72 hours; 3000 cells per well, 96-well plates; read-out: Cell viability IC50, nM, Ba/F3 ERBB2 wt. The method, boiled down: as §7

A further experiment deals with T3, Ba/F3 ERBB2-G776VC (Homo sapiens, UniProt P04626, DELINS776-776VC, cells depend on it).
T3 construct: Ba/F3 cell lines were engineered to express human ERBB2 or EGFR kinases, rendering the cells IL-3 independent
In words: Cell viability assay (CellTiter Glo). Format: cell-based, mouse. To be noted: 72 hours; 3000 cells per well, 96-well plates; read-out: Cell viability IC50, nM, Ba/F3 ERBB2-G776VC. A digest of the protocol:
as §7

A further experiment deals with T4, Ba/F3 ERBB2-L755S (Homo sapiens, UniProt P04626, L755S, cells depend on it).
T4 construct: Ba/F3 cell lines were engineered to express human ERBB2 or EGFR kinases, rendering the cells IL-3 independent
In words: Cell viability assay (CellTiter Glo). Format: cell-based, mouse. To be noted: 72 hours; 3000 cells per well, 96-well plates; read-out: Cell viability IC50, nM, Ba/F3 ERBB2-L755S. The method, boiled down:
as §7

In a further experiment the target is T5, Ba/F3 ERBB2-L869R (Homo sapiens, UniProt P04626, L869R, cells depend on it).
T5 construct: Ba/F3 cell lines were engineered to express human ERBB2 or EGFR kinases, rendering the cells IL-3 independent
In words: Cell viability assay (CellTiter Glo). It counts as cell-based, mouse. To be noted: 72 hours; 3000 cells per well, 96-well plates; read-out: Cell viability IC50, nM, Ba/F3 ERBB2-L869R. A digest of the protocol: as §7

The target in the next experiment is T6, Ba/F3 ERBB2-T798M (Homo sapiens, UniProt P04626, T798M, cells depend on it).
T6 construct: Ba/F3 cell lines were engineered to express human ERBB2 or EGFR kinases, rendering the cells IL-3 independent
T6 sequence (P04626 whole entry T798M): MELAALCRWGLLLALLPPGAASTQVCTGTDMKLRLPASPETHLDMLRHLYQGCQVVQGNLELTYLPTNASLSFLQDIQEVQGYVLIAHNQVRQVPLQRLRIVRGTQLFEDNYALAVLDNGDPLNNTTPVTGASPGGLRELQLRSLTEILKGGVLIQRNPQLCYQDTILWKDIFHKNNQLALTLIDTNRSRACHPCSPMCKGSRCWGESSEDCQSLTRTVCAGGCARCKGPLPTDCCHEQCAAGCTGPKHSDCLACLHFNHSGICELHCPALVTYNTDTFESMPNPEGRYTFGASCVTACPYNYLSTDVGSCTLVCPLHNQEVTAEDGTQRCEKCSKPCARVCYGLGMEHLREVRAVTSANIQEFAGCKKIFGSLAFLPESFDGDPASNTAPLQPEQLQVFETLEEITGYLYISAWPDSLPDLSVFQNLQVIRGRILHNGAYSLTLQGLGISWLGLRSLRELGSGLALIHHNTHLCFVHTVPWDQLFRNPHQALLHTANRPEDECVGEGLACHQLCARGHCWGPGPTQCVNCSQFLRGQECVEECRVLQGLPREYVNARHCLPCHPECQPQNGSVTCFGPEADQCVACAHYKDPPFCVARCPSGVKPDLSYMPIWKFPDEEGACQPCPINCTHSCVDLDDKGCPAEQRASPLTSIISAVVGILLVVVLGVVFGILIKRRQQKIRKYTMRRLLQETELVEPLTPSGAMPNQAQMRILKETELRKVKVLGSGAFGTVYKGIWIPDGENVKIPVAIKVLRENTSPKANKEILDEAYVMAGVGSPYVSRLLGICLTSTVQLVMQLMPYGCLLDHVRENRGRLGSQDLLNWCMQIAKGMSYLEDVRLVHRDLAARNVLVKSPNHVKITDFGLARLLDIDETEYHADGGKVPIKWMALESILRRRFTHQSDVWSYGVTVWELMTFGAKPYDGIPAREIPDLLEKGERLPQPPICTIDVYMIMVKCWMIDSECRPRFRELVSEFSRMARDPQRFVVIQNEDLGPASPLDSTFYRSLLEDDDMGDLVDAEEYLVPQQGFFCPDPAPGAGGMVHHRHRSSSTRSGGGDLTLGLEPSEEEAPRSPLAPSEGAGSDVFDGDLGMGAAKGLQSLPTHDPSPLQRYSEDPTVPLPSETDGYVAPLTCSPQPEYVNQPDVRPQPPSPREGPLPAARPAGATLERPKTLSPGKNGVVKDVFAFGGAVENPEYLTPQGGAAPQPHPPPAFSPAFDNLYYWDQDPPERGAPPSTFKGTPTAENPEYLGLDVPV
The experiment can be described thus: Cell viability assay (CellTiter Glo). Format: cell-based, mouse. To be noted: 72 hours; 3000 cells per well, 96-well plates; read-out: Cell viability IC50, nM, Ba/F3 ERBB2-T798M. A digest of the protocol: as §7

The next experiment deals with T7, Ba/F3 ERBB2-V777L (Homo sapiens, UniProt P04626, V777L, cells depend on it).
T7 construct: Ba/F3 cell lines were engineered to express human ERBB2 or EGFR kinases, rendering the cells IL-3 independent
T7 sequence (P04626 whole entry V777L): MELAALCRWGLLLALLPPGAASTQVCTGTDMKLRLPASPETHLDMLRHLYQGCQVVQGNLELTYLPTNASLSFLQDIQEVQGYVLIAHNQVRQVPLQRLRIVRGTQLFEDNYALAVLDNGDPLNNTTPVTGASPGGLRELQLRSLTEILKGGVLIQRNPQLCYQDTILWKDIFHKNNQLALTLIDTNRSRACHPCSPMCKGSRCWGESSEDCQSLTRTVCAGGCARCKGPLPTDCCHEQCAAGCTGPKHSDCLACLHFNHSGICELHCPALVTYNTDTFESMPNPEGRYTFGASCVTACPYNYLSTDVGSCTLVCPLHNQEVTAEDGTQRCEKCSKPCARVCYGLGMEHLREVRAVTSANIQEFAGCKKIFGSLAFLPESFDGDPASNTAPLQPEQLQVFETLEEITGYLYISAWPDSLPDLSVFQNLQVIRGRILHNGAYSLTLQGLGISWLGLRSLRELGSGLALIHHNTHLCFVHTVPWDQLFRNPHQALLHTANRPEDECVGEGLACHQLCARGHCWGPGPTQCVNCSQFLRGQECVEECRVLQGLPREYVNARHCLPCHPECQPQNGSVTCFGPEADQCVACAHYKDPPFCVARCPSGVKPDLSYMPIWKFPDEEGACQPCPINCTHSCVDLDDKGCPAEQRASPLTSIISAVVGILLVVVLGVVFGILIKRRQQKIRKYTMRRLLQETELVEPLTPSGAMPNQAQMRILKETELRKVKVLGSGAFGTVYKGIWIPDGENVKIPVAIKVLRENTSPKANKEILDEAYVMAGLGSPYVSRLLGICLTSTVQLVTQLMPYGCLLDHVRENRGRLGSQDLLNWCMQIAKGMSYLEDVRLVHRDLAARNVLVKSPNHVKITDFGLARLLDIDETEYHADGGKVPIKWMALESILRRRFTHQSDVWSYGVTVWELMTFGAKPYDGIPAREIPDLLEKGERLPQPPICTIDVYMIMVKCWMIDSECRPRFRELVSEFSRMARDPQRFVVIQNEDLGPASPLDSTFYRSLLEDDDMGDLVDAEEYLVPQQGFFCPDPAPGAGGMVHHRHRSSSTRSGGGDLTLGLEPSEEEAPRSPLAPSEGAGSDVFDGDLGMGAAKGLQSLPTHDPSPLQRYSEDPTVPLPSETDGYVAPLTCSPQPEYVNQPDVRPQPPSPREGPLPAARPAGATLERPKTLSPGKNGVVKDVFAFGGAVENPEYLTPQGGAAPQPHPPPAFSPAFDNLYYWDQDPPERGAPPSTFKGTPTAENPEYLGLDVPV
The experiment can be described thus: Cell viability assay (CellTiter Glo). Format: cell-based, mouse. To be noted: 72 hours; 3000 cells per well, 96-well plates; read-out: Cell viability IC50, nM, Ba/F3 ERBB2-V777L. A digest of the protocol:
as §7

The target of experiment [2] is T8, Ba/F3 ERBB2-V777_G778insGC (Homo sapiens, UniProt P04626, INS778CG, cells depend on it).
T8 construct: Ba/F3 cell lines were engineered to express human ERBB2 or EGFR kinases, rendering the cells IL-3 independent
In words: Cell viability assay (CellTiter Glo). Format: cell-based, mouse. To be noted: 72 hours; 3000 cells per well, 96-well plates; read-out: Cell viability IC50, nM, Ba/F3 ERBB2-V777_G778insGC. A digest of the protocol: as §7

The target in experiment [3] is T9, Ba/F3 ERBB2-P780_Y781insGSP (Homo sapiens, UniProt P04626, DUP778-780, cells depend on it).
T9 construct: Ba/F3 cell lines were engineered to express human ERBB2 or EGFR kinases, rendering the cells IL-3 independent
The experiment can be described thus: Cell viability assay (CellTiter Glo). It counts as cell-based, mouse. To be noted: 72 hours; 3000 cells per well, 96-well plates; read-out: Cell viability IC50, nM, Ba/F3 ERBB2-P780_Y781insGSP. Here is the method: as §1, §2, §3, §4, §5
Plates were placed in a 37° C., 5% CO2 incubator for 72 hours. Plates were then removed from the incubator and equilibrated for 15 minutes at room temperature. 40 IA of CellTiter Glo reagent (Promega) was added to measure the relative level of metabolically active cells by quantifying intracellular ATP concentrations. Plates were incubated for 30 minutes at room temperature, and luminescence was measured. […] Graphical curves were fitted using a nonlinear regression model with a sigmoidal dose response.

The target in experiment [4] is T10, phosphorylated ERBB2 (pERBB2) (Homo sapiens, UniProt P04626).
T10 construct: endogenous in cells; host or cells: BT-474
T10 sequence (P04626 23-1255): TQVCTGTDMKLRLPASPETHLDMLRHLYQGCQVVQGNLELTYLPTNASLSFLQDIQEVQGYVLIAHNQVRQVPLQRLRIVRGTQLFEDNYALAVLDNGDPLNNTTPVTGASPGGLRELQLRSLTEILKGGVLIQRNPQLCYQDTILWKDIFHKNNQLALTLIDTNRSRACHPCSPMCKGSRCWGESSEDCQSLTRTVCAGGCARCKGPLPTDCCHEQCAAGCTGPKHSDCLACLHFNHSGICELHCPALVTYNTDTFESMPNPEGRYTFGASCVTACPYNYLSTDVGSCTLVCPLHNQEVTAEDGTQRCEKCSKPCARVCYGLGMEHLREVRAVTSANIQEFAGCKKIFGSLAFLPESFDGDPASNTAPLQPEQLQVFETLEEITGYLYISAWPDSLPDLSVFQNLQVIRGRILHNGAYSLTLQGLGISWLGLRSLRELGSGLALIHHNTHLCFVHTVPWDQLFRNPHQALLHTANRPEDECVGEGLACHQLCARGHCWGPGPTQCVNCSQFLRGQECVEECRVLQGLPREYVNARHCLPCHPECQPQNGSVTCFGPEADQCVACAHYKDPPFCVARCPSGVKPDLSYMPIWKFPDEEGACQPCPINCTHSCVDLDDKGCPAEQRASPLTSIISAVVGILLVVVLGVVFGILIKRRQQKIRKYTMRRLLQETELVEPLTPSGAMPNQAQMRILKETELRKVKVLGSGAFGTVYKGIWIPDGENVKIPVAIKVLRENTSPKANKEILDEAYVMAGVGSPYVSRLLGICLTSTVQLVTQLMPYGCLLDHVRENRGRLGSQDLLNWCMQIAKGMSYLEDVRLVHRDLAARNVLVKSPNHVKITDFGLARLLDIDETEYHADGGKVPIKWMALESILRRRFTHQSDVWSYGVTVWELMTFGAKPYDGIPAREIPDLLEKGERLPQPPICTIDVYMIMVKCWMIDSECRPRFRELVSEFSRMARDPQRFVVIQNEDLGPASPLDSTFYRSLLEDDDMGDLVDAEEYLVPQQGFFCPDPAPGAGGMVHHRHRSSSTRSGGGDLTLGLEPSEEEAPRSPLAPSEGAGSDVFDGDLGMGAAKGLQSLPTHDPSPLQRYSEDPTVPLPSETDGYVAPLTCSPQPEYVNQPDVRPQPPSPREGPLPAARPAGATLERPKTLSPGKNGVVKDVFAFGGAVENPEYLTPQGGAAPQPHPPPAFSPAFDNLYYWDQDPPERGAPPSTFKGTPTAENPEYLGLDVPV
In words: Detection of phosphorylated ERBB2 (pERBB2) by ELISA in BT-474 cells. To be noted: four hours incubation with compound, OD 450 nm. It counts as cell-based. A digest of the protocol:
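BT-474 cells were treated for 4 h at 37 °C with four-fold compound dilutions from 10 μM to 0.01 nM final, then lysed. Phospho-ERBB2 in the lysates was measured by ELISA with TMB read-out at 450 nm. Relative activity was normalised between cell-free wells and 0.1% DMSO-treated cells.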
(In general: An ELISA detects its analyte on a solid surface through an enzyme-linked reagent.)

T1 sequence (P04626 with tags, fused parts or gaps DUP772-775): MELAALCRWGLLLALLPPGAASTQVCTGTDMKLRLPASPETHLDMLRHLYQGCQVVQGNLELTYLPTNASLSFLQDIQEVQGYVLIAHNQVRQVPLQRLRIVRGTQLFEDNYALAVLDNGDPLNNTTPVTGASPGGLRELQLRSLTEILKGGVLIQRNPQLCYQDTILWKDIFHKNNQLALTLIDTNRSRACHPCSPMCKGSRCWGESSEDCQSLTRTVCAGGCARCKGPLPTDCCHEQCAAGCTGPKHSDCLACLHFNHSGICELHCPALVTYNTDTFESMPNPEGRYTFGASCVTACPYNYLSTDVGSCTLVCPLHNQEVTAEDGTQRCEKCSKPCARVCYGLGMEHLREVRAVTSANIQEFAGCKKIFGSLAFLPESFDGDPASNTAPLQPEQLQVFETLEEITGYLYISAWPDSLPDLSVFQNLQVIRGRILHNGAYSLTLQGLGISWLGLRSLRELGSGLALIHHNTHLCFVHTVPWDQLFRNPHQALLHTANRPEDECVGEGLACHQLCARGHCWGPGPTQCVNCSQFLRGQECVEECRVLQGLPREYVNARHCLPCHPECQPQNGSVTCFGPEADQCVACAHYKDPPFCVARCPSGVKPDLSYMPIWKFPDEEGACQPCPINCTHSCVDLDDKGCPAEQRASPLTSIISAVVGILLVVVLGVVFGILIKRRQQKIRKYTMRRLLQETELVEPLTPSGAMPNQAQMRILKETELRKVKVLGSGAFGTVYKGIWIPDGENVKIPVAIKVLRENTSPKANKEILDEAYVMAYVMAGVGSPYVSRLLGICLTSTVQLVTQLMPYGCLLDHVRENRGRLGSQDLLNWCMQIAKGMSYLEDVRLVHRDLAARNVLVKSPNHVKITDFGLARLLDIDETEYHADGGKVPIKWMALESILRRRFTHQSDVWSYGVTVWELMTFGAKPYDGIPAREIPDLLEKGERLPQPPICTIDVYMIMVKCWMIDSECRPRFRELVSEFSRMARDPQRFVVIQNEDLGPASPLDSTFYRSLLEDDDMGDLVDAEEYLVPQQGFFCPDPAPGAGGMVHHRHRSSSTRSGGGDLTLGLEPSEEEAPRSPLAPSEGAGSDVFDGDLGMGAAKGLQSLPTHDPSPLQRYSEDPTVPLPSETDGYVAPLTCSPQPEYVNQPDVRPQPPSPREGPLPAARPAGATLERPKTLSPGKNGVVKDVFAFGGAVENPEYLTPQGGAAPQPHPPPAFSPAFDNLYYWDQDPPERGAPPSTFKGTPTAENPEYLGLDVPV

Take `CC#CC(=O)Nc1ccc2ncnc(Nc3ccc(Oc4cnc(C)cn4)cc3)c2c1` [Compound 10, N-[4-([4-[(5-methylpyrazin-2-yl)oxy]phenyl]amino)quinazolin-6-yl]but-2-ynamide]: the IC50 (commonly the concentration that inhibits the measured activity by half) was 1080 nM in the experiment with A431 cells, 35.5 nM with BT-474 cells, 232 nM in the experiment on MDA-MB-175VII cells and 74.9 nM in experiment [4]. Besides, the GI50 in [1] came to 49 nM; on Ba/F3 ERBB2 wt, 13.1 nM; at Ba/F3 ERBB2-G776VC, 81 nM; on Ba/F3 ERBB2-L755S it was 81 nM; on Ba/F3 ERBB2-L869R, 15 nM; at Ba/F3 ERBB2-T798M, 220 nM. The results for the GI50 (on Ba/F3 ERBB2-V777L; in experiment [2]; in experiment [3]) were 7.3 nM, 9.3 nM and 16 nM, respectively.

For the compound `CC#CC(=O)Nc1ccc2ncnc(Nc3ccc(Oc4ccc(C)nc4)cc3)c2c1` [Compound 9, N-[4-([4-[(6-methylpyridin-3-yl)oxy]phenyl]amino)quinazolin-6-yl]but-2-ynamide], the IC50 in the experiment on A431 cells came out at 454 nM; in the experiment with BT-474 cells, 12.3 nM; in the experiment with MDA-MB-175VII cells, 142 nM; in experiment [4], 43.9 nM. The GI50 in [1] was found to be 20 nM; on Ba/F3 ERBB2 wt, 5.7 nM; on Ba/F3 ERBB2-G776VC, 21 nM; at Ba/F3 ERBB2-L755S, 35 nM; at Ba/F3 ERBB2-L869R it was 15 nM; at Ba/F3 ERBB2-T798M, 239 nM. Besides, the GI50 at Ba/F3 ERBB2-V777L was determined as 4.1 nM; in experiment [2] it was 2.4 nM; in experiment [3], 5.5 nM.

Regarding `CC#CC(=O)N(C)c1ccc2ncnc(Nc3ccc(Oc4ccn5ncnc5c4)cc3)c2c1` [Compound 8, N-methyl-N-[4-[(4-[[1,2,4]triazolo[1,5-a]pyridin-7-yloxy]phenyl)amino]quinazolin-6-yl]but-2-ynamide], the IC50 in the experiment on A431 cells is above 10000 nM; with BT-474 cells, 16.7 nM; with MDA-MB-175VII cells, 562 nM; in experiment [4] it was 72.9 nM. Also, the GI50 in experiment [1] came to 276 nM; at Ba/F3 ERBB2 wt it was 31 nM; at Ba/F3 ERBB2-G776VC, 117 nM; on Ba/F3 ERBB2-L755S, 159 nM; on Ba/F3 ERBB2-L869R, 52 nM; on Ba/F3 ERBB2-T798M, 1500 nM. Moreover, the GI50 at Ba/F3 ERBB2-V777L was 11 nM; in experiment [2], 34 nM; in experiment [3], 20.4 nM.
